Results taken from US4914086A, “Method for treating African human and veterinary trypanosomiases” (priority 1987, dated 1990).
“Also recorded” adds a separate entry of the source.

Columns and labels:
T. b. brucei TREU 667 [1] = conditions: infection developed within 21 days; cited from earlier work
T. b. brucei LUMP 1001 [2] = test: CNS model, T. b. brucei LUMP 1001 infection in mice (Table 5); type: in vivo, Trypanosoma brucei brucei (in Swiss-Webster mice); conditions: control: Berenil 40 mg/kg on day 21
Excerpt: (§1) T. b. brucei EATRO 110 isolate was maintained as described (Bacchi, C. J., H. C. Nathan, S. H. Hutner, P. P. McCann and A. Sjoerdsma; Polyamine metabolism: a potential chemotherapeutic target in trypanosomes. Science 210: 332-334, 1980). It produces an acute, rapidly fatal parasitemia which is lethal to mice 3-5 days after inoculation. Two T. B. brucei strains, TREU 667 and LUMP 1001 developed by Jennings and coworkers (Jennings, F. W., D. D. Whitelaw and G. M. Urquhart; The relationship between duration of infection with Trypanosoma brucei in mice and the efficacy of chemotherapy. Parasitology 75: 143-153, 1977/Jennings, F. W. and G. D. Gray; Relapsed parasitemia following chemotherapy of chronic T. brucei infections in mice and its relation to cerebral trypanosomes; Contr. Microbiol. Immunol. 7 147-154, 1983) were used as CNS models. Both produce infections which are refractory to Berenil® (diminazene aceturate) and develop within 21 days after inoculation. They are not usually fatal until >40 days after inoculation. LUMP 1001 causes a more virulent CNS infection than TREU 667, and is regarded as more difficult to cure (Jennings, F. W. and G. D. Gray. Relapsed parasitemia following chemotherapy of chronic T. brucei infections in mice and its relation to cerebral trypanosomes. Contr. Microbiol. Immunol. 7 147-154, 1983).
The models for […] nervous system infections used TREU 667 and LUMP 1001 strains which were stored frozen and passaged once in rats before infection of mice. Maintenance and use of these screens were as described (Clarkson, A. B. Jr., C. J. Bacchi, G. H. Mellon, H. C. Nathan, P. P. McCann and A. Sjoerdsma. Efficacy of DFMO+blemoycin in a mouse model of central nervous system African trypanosomiasis. Proc. Natl. Acad. Sci. USA. 80: 5729-5733, 1983/Clarkson, A. B. Jr., E. J. Biene, C. J. Bacchi, P. P. McCann, S. H. Hutner and A. Sjoerdsma. New drug combination for experimental late stage African trypanosomiasis: DFMO with suramin. Am. J. Trop. Med. Hyg. 33: 1073-1077, 1984/Dube, D. K., G. Mpimbaza, A. C. Allison, E. Lederer and L. Rovis. Antitrypanosomal activity of sinefungin, Am. J. Trop. Med. Hyg. 32: 31-33, 1983/Fish, W. R., J. J. Marr, R. L. Berens, D. L. Looker, D. J. Nelson, S. LaFon and A. E. Balber. Inosine analogs as chemotherapeutic agents for African trypanosomes: metabolism in trypanosomes and efficacy in tissue culture. Anti-microb. Ag. Chemother. 27: 33-36, 1985/Clazer, R. I., and L. S. Lloyd. Effects of 8-azaadenosine and formycin on cell lethality and the synthesis and methylation of nucleic acids in human colon carcinoma cells in culture. Biochem. Pharmacol. 31: 3207-3214, 1982/Bacchi, C. J., H. C. Nathan, A. B. Clarkson, Jr., E. J. Bienen, A. J. Bitonti, P. P. McCann and A. Sjoerdsma. Activity of the ornithine decarboxylase inhibitors DL-α-difluoromethylornithine and monofluormethyldehydroornithine methylester alone and in combination with suramin against Trypanosoma brucei brucei central nervous system models, Am. J. Trop. Med. Hyg. (in press)). Briefly, groups of 100-120 mice were infected and the infections allowed to develop until day 21, when the animals were separated into groups of 10 and therapy commenced. Controls were treated with Berenil (40 mg/kg) on day 21. […] Parasitemia was followed by examining tail vein blood smears once weekly. Animals which had relapsed were removed from cages.

T. b. brucei LUMP 1001 [3] = conditions: infection developed within 21 days; cited from earlier work
T. b. brucei TREU 667 [4] = test: CNS model, T. b. brucei TREU 667 infection in mice (Table 4); type: in vivo, Trypanosoma brucei brucei (in Swiss-Webster mice); conditions: for efficacy in CNS model in words: 100 mg/kg × 6 doses/days
Excerpt: as §1
The models for […] nervous system infections used TREU 667 and LUMP 1001 strains which were stored frozen and passaged once in rats before infection of mice. Maintenance and use of these screens were as described (Clarkson, A. B. Jr., C. J. Bacchi, G. H. Mellon, H. C. Nathan, P. P. McCann and A. Sjoerdsma. Efficacy of DFMO+blemoycin in a mouse model of central nervous system African trypanosomiasis. Proc. Natl. Acad. Sci. USA. 80: 5729-5733, 1983/Clarkson, A. B. Jr., E. J. Biene, C. J. Bacchi, P. P. McCann, S. H. Hutner and A. Sjoerdsma. New drug combination for experimental late stage African trypanosomiasis: DFMO with suramin. Am. J. Trop. Med. Hyg. 33: 1073-1077, 1984/Dube, D. K., G. Mpimbaza, A. C. Allison, E. Lederer and L. Rovis. Antitrypanosomal activity of sinefungin, Am. J. Trop. Med. Hyg. 32: 31-33, 1983/Fish, W. R., J. J. Marr, R. L. Berens, D. L. Looker, D. J. Nelson, S. LaFon and A. E. Balber. Inosine analogs as chemotherapeutic agents for African trypanosomes: metabolism in trypanosomes and efficacy in tissue culture. Anti-microb. Ag. Chemother. 27: 33-36, 1985/Clazer, R. I., and L. S. Lloyd. Effects of 8-azaadenosine and formycin on cell lethality and the synthesis and methylation of nucleic acids in human colon carcinoma cells in culture. Biochem. Pharmacol. 31: 3207-3214, 1982/Bacchi, C. J., H. C. Nathan, A. B. Clarkson, Jr., E. J. Bienen, A. J. Bitonti, P. P. McCann and A. Sjoerdsma. Activity of the ornithine decarboxylase inhibitors DL-α-difluoromethylornithine and monofluormethyldehydroornithine methylester alone and in combination with suramin against Trypanosoma brucei brucei central nervous system models, Am. J. Trop. Med. Hyg. (in press)). Briefly, groups of 100-120 mice were infected and the infections allowed to develop until day 21, when the animals were separated into groups of 10 and therapy commenced. Controls were treated with Berenil (40 mg/kg) on day 21. These always relapsed 40-70 days after treatment. Parasitemia was followed by examining tail vein blood smears once weekly. Animals which had relapsed were removed from cages. TREU 667 infections were followed >225 days after inoculation and LUMP 1001 were followed >280 days, as determined by the relapse pattern in previous work (Bacchi, C. J., H. C. Nathan, A. B. Clarkson, Jr., E. J. Bienen, A. J. Bitonti, P. P. McCann and A. Sjoerdsma. Activity of the ornithine decarboxylase inhibitors DL-α-difluoromethylornithine and monofluormethyldehydroornithine methylester alone and in combination with suramin against Trypanosoma brucei brucei central nervous system models. Am. J. Trop. Med. Hyg. (in press)). […]

Pneumocystis Carinii = conditions: tissue culture; cited from earlier work
Leishmania spp = conditions: previous studies; cited from earlier work
[5] = tested on: Trypanosoma brucei gambiense; conditions: bone marrow tissue culture system; cited from earlier work
mouse L cells = conditions: cited from earlier work
African trypanosomes = conditions: previous studies; cited from earlier work
T. cruzi = conditions: previous studies; cited from earlier work
T. brucei subsp. = conditions: cited from earlier work
[6] = tested on: Trypanosoma brucei rhodesiense; conditions: bone marrow tissue culture system; cited from earlier work
human macrophages = conditions: cited from earlier work
mammalian cells = conditions: cited from earlier work
T. b. brucei EATRO 110 = test: Drug screen, acute EATRO 110 mouse infection (Tables 1, 3); type: in vivo, Trypanosoma brucei brucei (in Swiss-Webster mice); conditions: for activity in the acute (short term) EATRO 110 model, in words: text summary
Excerpt: as §1
(§2) Swiss-Webster (25-30 g) mice were used throughout. In the EATRO 110 model, groups of 100 mice were infected (10^5 trypanosomes/mouse) and the infection was allowed to develop 24 hours before commencing therapy. Animals were divided into groups of 5 before treatment. Cured animals survived >30 days beyond deaths of controls. All compounds were administered by i.p. injection.
Other methods as in Table 1.

in vivo = test: in vivo
Description: as §2

[7] = Table 1, 2.5 mg/kg i.p. (9-DINO, sinefungin once daily for 3 days)
[8] = Table 1, 5 mg/kg i.p. (9-DINO, sinefungin once daily for 3 days)
[9] = Table 1, 10 mg/kg i.p. (9-DINO, sinefungin once daily for 3 days)
[10] = Table 1, 25 mg/kg i.p. (9-DINO, sinefungin once daily for 3 days)
[11] = Table 1, 50 mg/kg i.p. (9-DINO, sinefungin once daily for 3 days)
[12] = Table 1, 100 mg/kg i.p. (9-DINO, sinefungin once daily for 3 days)
[13] = Table 3, 0.05 mg/kg i.p. once daily for 3 days
[14] = Table 3, 0.1 mg/kg i.p. once daily for 3 days
[15] = Table 3, 0.25 mg/kg i.p. once daily for 3 days
[16] = Table 3, 0.5 mg/kg i.p. once daily for 3 days

N=C(N)c1ccc(N=NNc2ccc(C(=N)N)cc2)cc1 [Berenil, diminazene aceturate, reference compound]
response of infection in words (T. b. brucei TREU 667 [1]): refractory | relapse after treatment (T. b. brucei LUMP 1001 [2]): 40 to 70 days | response of infection in words (T. b. brucei LUMP 1001 [3]): refractory | relapse after treatment (T. b. brucei TREU 667 [4]; control: Berenil 40 mg/kg on day 21): 40 to 70 days

O=c1[nH]cnc2c([C@@H]3O[C@H](CO)[C@@H](O)[C@H]3O)n[nH]c12 [Formycin B, 7-hydroxypyrazolo (4,3-d) pyrimidine ribonucleoside]
activity in words (Pneumocystis Carinii): active | activity in words (Leishmania spp): active | activity in words [5]: active at very low concentrations; also recorded: somewhat more efficacious than 9-deazainosine | metabolism in words (mouse L cells): Mouse L cells can convert formycin B to the analogs of adenine nucleotides and incorporate the ATP analog into RNA | activity in words (African trypanosomes): active | activity in words (T. cruzi): active | metabolism in words (T. brucei subsp.): can be aminated by T. brucei subsp. and converted to analogs of ATP | activity in words [6]: active at very low concentrations; also recorded: somewhat more efficacious than 9-deazainosine | # Cured/Total (T. b. brucei TREU 667 [4]; 5 mg/kg i.p., 7 days): 0/8 | % Cured (T. b. brucei TREU 667 [4]; 5 mg/kg i.p., 7 days): 0% | Avg. Day of Relapse (Range) (T. b. brucei TREU 667 [4]; 5 mg/kg i.p., 7 days): 42 (37-49) Day | # Cured/Total (T. b. brucei TREU 667 [4]; 10 mg/kg i.p., 7 days): 0/9 | % Cured (T. b. brucei TREU 667 [4]; 10 mg/kg i.p., 7 days): 0% | Avg. Day of Relapse (Range) (T. b. brucei TREU 667 [4]; 10 mg/kg i.p., 7 days): 40 (37-41) Day | # Cured/Total (T. b. brucei TREU 667 [4]; 25 mg/kg i.p., 7 days): 0/10 | % Cured (T. b. brucei TREU 667 [4]; 25 mg/kg i.p., 7 days): 0% | Avg. Day of Relapse (Range) (T. b. brucei TREU 667 [4]; 25 mg/kg i.p., 7 days): 40 (37-68) Day | # Cured/Total (T. b. brucei TREU 667 [4]; 50 mg/kg i.p., 6 days): 0/10 | % Cured (T. b. brucei TREU 667 [4]; 50 mg/kg i.p., 6 days): 0% | Avg. Day of Relapse (Range) (T. b. brucei TREU 667 [4]; 50 mg/kg i.p., 6 days): 34 (23-35) Day | # Cured/Total (T. b. brucei TREU 667 [4]; 100 mg/kg i.p., 6 days): 0/9 | % Cured (T. b. brucei TREU 667 [4]; 100 mg/kg i.p., 6 days): 0% | Avg. Day of Relapse (Range) (T. b. brucei TREU 667 [4]; 100 mg/kg i.p., 6 days): 35 days | efficacy in CNS model in words (T. b. brucei TREU 667 [4]): not curative | efficacy in CNS model in words (T. b. brucei TREU 667 [4]; listed as formycin B): failed to protect | conversion to adenine nucleotide analogs / incorporation in words (human macrophages): this occurred in human macrophages | cleavage into ribose and purine analog moieties (mammalian cells): cannot be cleaved into ribose and purine analog moieties | metabolism in words (mammalian cells): metabolized by mammalian cells to its aminated analog formycin A | curative / active dose range (T. b. brucei EATRO 110; EATRO 110, text): 5 to 100 mg/kg | # Cured/Total (T. b. brucei EATRO 110; [7]): 5/5 | % Cured (T. b. brucei EATRO 110; [7]): 100% | # Cured/Total (T. b. brucei EATRO 110; [8]): 4/5 | % Cured (T. b. brucei EATRO 110; [8]): 80% | # Cured/Total (T. b. brucei EATRO 110; [9]): 5/5 | % Cured (T. b. brucei EATRO 110; [9]): 100% | # Cured/Total (T. b. brucei EATRO 110; [10]): 9/10 | % Cured (T. b. brucei EATRO 110; [10]): 90% | # Cured/Total (T. b. brucei EATRO 110; [11]): 5/5 | % Cured (T. b. brucei EATRO 110; [11]): 100% | # Cured/Total (T. b. brucei EATRO 110; [12]): 4/5 | % Cured (T. b. brucei EATRO 110; [12]): 80% | # Cured/Total (T. b. brucei EATRO 110; [13]): 0/5 | % Cured (T. b. brucei EATRO 110; [13]): 0% | # Cured/Total (T. b. brucei EATRO 110; [14]): 0/5 | % Cured (T. b. brucei EATRO 110; [14]): 0% | # Cured/Total (T. b. brucei EATRO 110; [15]): 1/10 | % Cured (T. b. brucei EATRO 110; [15]): 10% | # Cured/Total (T. b. brucei EATRO 110; [16]): 3/5 | % Cured (T. b. brucei EATRO 110; [16]): 60% | relative activity of formycin B versus 9-DINO (T. b. brucei EATRO 110; comparison of activity ranges): > 10 X | activity in the acute (short term) EATRO 110 model, in words (T. b. brucei EATRO 110): most active; also recorded: extremely active | activity in the acute (short term) EATRO 110 model, in words (T. b. brucei EATRO 110; listed as formycin B): greatest activity; also recorded: more active than 9-DINO | toxicity in words (in vivo; 100 mg/kg): toxicity was observed; also recorded: loss of hair | mortality (in vivo; mouse, in vivo, ip, 100 mg/kg): 20% | dose at which toxicity appeared (in vivo; short term model, Table 1): 100 mg/kg
